Test results published in paper PMC5866846 (Archives of Toxicology, 2017).

Experiments:
[1] = Formation of Met E and Tam-Bis from precursors in pooled human liver microsomes with and without NADPH-regenerating system; assay type: in vitro ADME; conditions: DM-Tam, DDM-Tam, 50 µM, pooled HLM
Protocol: The reaction was started by adding a NADPH regenerating system (5 mM MgCl2, 5 mM glucose-6-phosphate, 0.5 mM NADP^+ and 10 U glucose-6-phosphate-dehydrogenase in 100 mM sodium phosphate buffer pH 7.4) to the samples and immediately put in a 37 °C water bath for 30 min. The reaction was stopped with the same volume of acetonitrile (ACN) containing 1% of acetic acid together with the corresponding deuterated internal standards. Regarding incubations with Supersomes™ containing UGTs, 5 µg of protein was incubated with 250 mM MgCl2 and 2.5 ng of alamethicin for 30 min on ice, followed by 10 min at 37 °C in a water bath. […] Metabolites were analyzed by HPLC-ESI-MS/MS.
Protein was precipitated by the addition of ACN containing 1% of acetic acid and the corresponding deuterated internal standards to the same volume of the sample followed by centrifugation at 20.000 g for 15 min at RT. […] Analytes were separated on a Zorbax Eclipse Plus C18 column (1.8 µm, 100 × 2.1 mm, Agilent technologies) and detected on a 6460 triple quadrupole mass spectrometer (Agilent technologies) in positive ESI MRM mode. Glucuronides of estrogen-like metabolites were detected separately via MS/MS-measurements in negative ESI MRM mode. […]

[2] = Formation kinetics of Tam-Bis, (Z)- and (E)-Met E in HLM with increasing substrate concentrations; assay type: in vitro ADME, human; conditions: substrate 1 to 50 µM, Michaelis-Menten
Protocol: The reaction was started by adding a NADPH regenerating system (5 mM MgCl2, 5 mM glucose-6-phosphate, 0.5 mM NADP^+ and 10 U glucose-6-phosphate-dehydrogenase in 100 mM sodium phosphate buffer pH 7.4) to the samples and immediately put in a 37 °C water bath for 30 min. The reaction was stopped with the same volume of acetonitrile (ACN) containing 1% of acetic acid together with the corresponding deuterated internal standards. Regarding incubations with Supersomes™ containing UGTs, 5 µg of protein was incubated with 250 mM MgCl2 and 2.5 ng of alamethicin for 30 min on ice, followed by 10 min at 37 °C in a water bath. Subsequently, the Supersomes™ were incubated with 10 µM of substrates (Tam-Bis, (E)- and (Z)-Met E) and the glucuronidation was started by addition of 10 mM of uridine 5′-diphospho-glucuronic acid to the samples in a water bath at 37 °C for 30 min. The reaction was stopped as described above. Metabolites were analyzed by HPLC-ESI-MS/MS.
For the assessment of formation kinetics of Tam-Bis, (E)- and (Z)-Metabolite E, HLM were incubated with increasing substrate concentrations ranging from 1 to 50 µM as described above. As control for each concentration a sample without NADPH-regenerating system was prepared. […]

[3] = system: single CYP isoenzymes (Supersomes); assay: Formation of estrogen-like metabolites in Supersomes specific for single CYP isoenzymes; assay type: in vitro ADME; conditions: 50 µM precursors
From the text: Supersomes™ were obtained from Corning Incorporated, Wiesbaden, Germany, and were specific for CYP isoenzymes CYP1A1, 1A2, 2A6, 2B6, 2C8, 2C9, 2C19, 2D6, 3A4, 3A5 and 19A1. All Supersomes™ contained oxidoreductase. Cytochrome b5 was present in the Supersomes™ of CYP2A6, 2B6, 2C8, 2C9, 3A4 and 3A5. UDP-glucuronosyltransferases (UGT)containing Supersomes™ were specific for the following isoenzymes: 1A1, 1A2, 1A3, 1A4, 1A6, 1A7, 1A8, 1A9, 1A10, 2B4, 2B7, 2B10, 2B15 and 2B17.
The reaction was started by adding a NADPH regenerating system (5 mM MgCl2, 5 mM glucose-6-phosphate, 0.5 mM NADP^+ and 10 U glucose-6-phosphate-dehydrogenase in 100 mM sodium phosphate buffer pH 7.4) to the samples and immediately put in a 37 °C water bath for 30 min. The reaction was stopped with the same volume of acetonitrile (ACN) containing 1% of acetic acid together with the corresponding deuterated internal standards. […] Metabolites were analyzed by HPLC-ESI-MS/MS.
Protein was precipitated by the addition of ACN containing 1% of acetic acid and the corresponding deuterated internal standards to the same volume of the sample followed by centrifugation at 20.000 g for 15 min at RT. […] Glucuronides of estrogen-like metabolites were detected separately via MS/MS-measurements in negative ESI MRM mode.

[4] = system: upcyte hepatocytes 653-03 and 653-03 2D6; assay: Tam metabolism in upcyte hepatocytes, cell strain not distinguished; assay type: in vitro ADME, human; conditions: 1 µM Tam, all time points
Protocol: The medium was replaced every 2–3 days. […].
The culture medium was collected after 24, 48, 72, 96 and 144 h followed by metabolite measurements using HPLC-ESI-MS/MS.
Protein was precipitated by the addition of ACN containing 1% of acetic acid and the corresponding deuterated internal standards to the same volume of the sample followed by centrifugation at 20.000 g for 15 min at RT. […] Analytes were separated on a Zorbax Eclipse Plus C18 column (1.8 µm, 100 × 2.1 mm, Agilent technologies) and detected on a 6460 triple quadrupole mass spectrometer (Agilent technologies) in positive ESI MRM mode. Glucuronides of estrogen-like metabolites were detected separately via MS/MS-measurements in negative ESI MRM mode.
[…]. […] […].

CYP1A2 = CYP1A2 activity in upcyte hepatocytes after treatment (probe substrate cocktail); conditions: human, EC50 of induction of CYP1A2 activity, 50 pM to 5 µM
Protocol: (§1) Cells were cultivated in hepatocyte culture medium at 37 °C and 5 °% CO2 in a humidified incubator. Before starting experiments, cells were cultivated in hepatocyte culture medium containing 0.5% (v/v) DMSO (Preculture medium) for 5 days (density of 0.8 × 10^4 cells/cm^2) and were subcultivated in high-performance medium containing 0.1% (v/v) DMSO (Metabolism conditioning medium) for 3–5 days (density of 1.6 × 10^5 cells/cm^2, confluence). The medium was replaced every 2–3 days.
(§2) In HLM and supersome™ incubations the formation rate is given as nmol µg^−1 min^−1 and fmol pmol^−1 min^−1, respectively, and was calculated as the mean ± SD. […] The intrinsic Clearance (Clint) was given as Vmax/Km ratio. […] Activity of CYP enzymes in induction assays is given as the fold-change (mean ± SD) compared to the corresponding DMSO-treated control. […] Gene expression patterns of treated cells are given as fold-change compared to the corresponding DMSO-treated control samples, as described above. […] In induction and inhibition experiments corresponding EC50 and IC50 values were calculated by nonlinear regression. In all experiments a level of probability (p) ≤ 0.05 for statistical testing was considered significant.
(§3) As control 0.05 % DMSO was used. The basal CYP activity and induction of CYP activity compared to the DMSO control were measured via HPLC-ESI-MS/MS.

CYP2B6 = CYP2B6 activity in upcyte hepatocytes after treatment (probe substrate cocktail)
Protocol: as §1, §2, §3

CYP3A4 [5] = assay: CYP3A4 activity in upcyte hepatocytes after treatment (probe substrate cocktail)
Protocol: as §1, §2, §3

CYP3A4 gene expression = CYP3A4 gene expression in upcyte hepatocytes (Fluidigm RT-PCR)
From the text: (§4) Total RNA was isolated from cells using the Direct-zol™ RNA MiniPrep kit (Zymo Research Corp., Irvine, California). cDNA was synthesized using TaqMan Reverse Transcription Reagents (Life technologies, Applera GmbH, Darmstadt, Germany) and the expression of 25 genes representative of phase I and phase II drug metabolism and transport was quantified by Fluidigm’s BioMark HD high-throughput quantitative chip platform (Fluidigm Corporation, San Francisco, USA). For relative gene expression analysis, the delta-delta-Ct (ΔΔCt) method was used: the Ct values of the target mRNA were first normalized to those of the endogenous control glyceraldehyde-3-phosphate dehydrogenase (GAPDH) followed by dividing values of experimental samples by their corresponding DMSO-treated controls to calculate the x-fold changes of mRNA expression.
as §2, §3

estrogen receptor = system: estrogen receptor; design: method as in Johnson et al. [1989]; Murphy et al. [1990]; conditions: in vitro, estrogen-dependent breast cancer cell lines; ref Johnson et al. [1989]; Murphy et al. [1990]; cited from earlier work
CYP2C8 = target: T1, CYP2C8 (Homo sapiens, UniProt P10632); assay: CYP2C8 activity in upcyte hepatocytes after treatment (probe substrate cocktail); assay type: cell-based; design: host or cells: upcyte hepatocytes 653-03 and 653-03 #138 (653-03 2D6); conditions: human, probe amodiaquine (5 µM), upcyte hepatocytes, 50 pM to 5 µM, read-out: EC50 of induction of CYP2C8 activity
T1 sequence (P10632 1-490): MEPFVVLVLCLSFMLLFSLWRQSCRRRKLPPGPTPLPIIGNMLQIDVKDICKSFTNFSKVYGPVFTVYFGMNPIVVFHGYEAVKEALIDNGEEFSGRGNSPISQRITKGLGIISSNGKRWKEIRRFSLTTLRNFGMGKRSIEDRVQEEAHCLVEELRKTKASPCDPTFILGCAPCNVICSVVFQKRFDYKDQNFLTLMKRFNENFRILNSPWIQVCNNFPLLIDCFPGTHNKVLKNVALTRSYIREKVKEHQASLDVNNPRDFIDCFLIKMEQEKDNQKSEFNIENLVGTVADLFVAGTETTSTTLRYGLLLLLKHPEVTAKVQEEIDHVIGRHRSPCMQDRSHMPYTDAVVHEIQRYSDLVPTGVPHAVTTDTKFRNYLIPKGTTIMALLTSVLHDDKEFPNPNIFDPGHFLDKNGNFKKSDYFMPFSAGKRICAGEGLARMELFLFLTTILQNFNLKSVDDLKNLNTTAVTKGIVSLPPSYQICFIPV
Protocol: as §1, §2, §3

CYP2C9 = CYP2C9 (Homo sapiens, UniProt P11712); assay: CYP2C9 activity in upcyte hepatocytes after treatment (probe substrate cocktail); assay type: cell-based; design: host or cells: upcyte hepatocytes 653-03 and 653-03 #138 (653-03 2D6); conditions: 5 µM, 72 h
Protocol: as §1, §2, §3

CYP2C19 = CYP2C19 (Homo sapiens, UniProt P33261); assay: CYP2C19 activity in upcyte hepatocytes after treatment (probe substrate cocktail); assay type: cell-based; design: host or cells: upcyte hepatocytes 653-03 and 653-03 #138 (653-03 2D6); conditions: human, probe S-mephenytoin (100 µM), upcyte hepatocytes, 50 pM to 5 µM, read-out: EC50 of induction of CYP2C19 activity
Protocol: as §1, §2, §3

SLC22A7 gene expression = SLC22A7 gene expression in upcyte hepatocytes (Fluidigm RT-PCR); assay type: cell-based, human; conditions: phenobarbital 2 mM, 72 h
From the text: as §4
(§5) In HLM and supersome™ incubations the formation rate is given as nmol µg^−1 min^−1 and fmol pmol^−1 min^−1, respectively, and was calculated as the mean ± SD. […] The intrinsic Clearance (Clint) was given as Vmax/Km ratio. […] In induction and inhibition experiments corresponding EC50 and IC50 values were calculated by nonlinear regression. […]
as §3

CYP2C8 gene expression = CYP2C8 gene expression in upcyte hepatocytes (Fluidigm RT-PCR); assay type: cell-based, human; conditions: phenobarbital 2 mM, 72 h; 'up to' = strongest decrease
From the text: (§6) Differences between induced and control samples were compared using Welch’s t-test (GraphPad Prism, version 5.04), when the fold-change was considered biologically relevant (1.5-fold increase or decrease in fold-changes) and corrected for multiple testing according to Bonferroni. […] An unpaired t-test assuming unequal variances was used for testing of differences in the expression patterns, when the fold-change was considered biologically relevant (1.5-fold increase or decrease in fold-changes) and corrected using Bonferroni adjustments.
(§7) As control 0.05 % DMSO was used.

CYP2C19 gene expression = CYP2C19 gene expression in upcyte hepatocytes (Fluidigm RT-PCR); assay type: cell-based, human; conditions: phenobarbital 2 mM, 72 h
From the text: as §6, §7

CYP2E1 gene expression = CYP2E1 gene expression in upcyte hepatocytes (Fluidigm RT-PCR); assay type: cell-based, human; conditions: phenobarbital 2 mM, 72 h; 'up to' = strongest decrease
From the text: as §6, §7

SULT1B1 gene expression = SULT1B1 gene expression in upcyte hepatocytes (Fluidigm RT-PCR); assay type: cell-based, human; conditions: phenobarbital 2 mM, 72 h; 'up to' = strongest decrease
UGT1A1 gene expression = UGT1A1 gene expression in upcyte hepatocytes (Fluidigm RT-PCR); assay type: cell-based, human; conditions: phenobarbital 2 mM, 72 h, both strains
From the text: as §4, §5, §3

SLCO1B1 gene expression = SLCO1B1 gene expression in upcyte hepatocytes (Fluidigm RT-PCR); assay type: cell-based, human; conditions: phenobarbital 2 mM, 72 h
From the text: as §4, §5, §3

NAT1 gene expression = NAT1 gene expression in upcyte hepatocytes (Fluidigm RT-PCR); assay type: cell-based, human; conditions: phenobarbital 2 mM, 72 h; 'up to' = strongest decrease
CYP3A4 [6] = conditions: hepatocytes

Sequence of CYP2C19 (P33261 whole entry): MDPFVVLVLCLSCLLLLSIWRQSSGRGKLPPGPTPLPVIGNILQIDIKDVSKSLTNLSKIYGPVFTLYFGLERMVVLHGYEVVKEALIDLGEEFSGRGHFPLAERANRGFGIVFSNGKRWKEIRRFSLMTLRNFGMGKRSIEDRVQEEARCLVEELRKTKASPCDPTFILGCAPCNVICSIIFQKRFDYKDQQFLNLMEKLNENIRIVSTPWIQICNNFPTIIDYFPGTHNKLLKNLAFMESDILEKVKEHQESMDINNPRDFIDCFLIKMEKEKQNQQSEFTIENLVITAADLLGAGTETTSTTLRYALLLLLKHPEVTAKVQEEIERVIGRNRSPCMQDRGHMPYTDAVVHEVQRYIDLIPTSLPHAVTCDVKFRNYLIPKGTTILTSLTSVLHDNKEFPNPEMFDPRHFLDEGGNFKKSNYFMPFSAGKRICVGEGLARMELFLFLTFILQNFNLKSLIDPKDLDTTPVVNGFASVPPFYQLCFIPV
Sequence of CYP2C9 (P11712 whole entry): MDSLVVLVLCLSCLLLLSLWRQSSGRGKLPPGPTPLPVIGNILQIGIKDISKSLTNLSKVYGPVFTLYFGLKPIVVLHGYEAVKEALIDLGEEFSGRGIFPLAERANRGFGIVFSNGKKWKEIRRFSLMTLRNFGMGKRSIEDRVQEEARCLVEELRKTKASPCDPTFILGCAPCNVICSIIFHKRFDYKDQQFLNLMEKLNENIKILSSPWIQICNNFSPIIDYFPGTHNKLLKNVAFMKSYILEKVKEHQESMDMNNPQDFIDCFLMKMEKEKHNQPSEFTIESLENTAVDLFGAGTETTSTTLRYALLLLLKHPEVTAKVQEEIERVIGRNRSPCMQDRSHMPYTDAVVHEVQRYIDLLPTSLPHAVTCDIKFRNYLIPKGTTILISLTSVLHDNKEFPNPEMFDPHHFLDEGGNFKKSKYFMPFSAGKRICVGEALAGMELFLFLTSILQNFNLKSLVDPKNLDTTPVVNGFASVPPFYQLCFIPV

SMILES: CCC(=C(c1ccccc1)c1ccc(O)cc1)c1ccccc1 [(E)-Met E, 4-[1,2-diphenylbut-1-en-1-yl]phenol]
- formation rate of the (E)-isomer compared to (Z)-Met E [1]: approximately 10%
- V max, Bisphenol formation [2]: 8.1 pmol/mg/min
- Km ([2]; read-out: Km, Bisphenol formation): 10.4 µM
- formation rates lower than those of the (Z)-isomer [3]: approximately 10 times
- concentration of the (E)-isomer relative to (Z)-Met E [4]: about 10%
- EC50 at 72 h (CYP1A2): > 5 µM
- EC50 at 72 h (CYP2B6; human, probe bupropion (25 µM)): > 5 µM
- induction of CYP3A4 activity compared to DMSO control (CYP3A4 [5]; 5 µM, 72 h, parental and derived cell line): weakly induced
- EC50 at 72 h (CYP3A4 [5]; human, probe atorvastatin (35 µM), EC50 of induction of CYP3A4 activity, upcyte hepatocytes, 72 h, 50 pM to 5 µM): 277 nM
- CYP3A4 gene expression, induction vs DMSO control (CYP3A4 gene expression; 5 µM, 72 h, both cell strains): up to 5.6 fold
- agonism regarding estrogen-regulated mRNA expression (estrogen receptor): full agonists
- EC50 at 72 h (CYP2C8): > 5 µM
- induction of CYP2C9 activity (CYP2C9): weakly induced
- EC50 at 72 h (CYP2C19): > 5 µM

SMILES: CCC1(c2ccccc2)C(=O)NC(=O)NC1=O [PB, phenobarbital]
- induction of CYP2B6 activity (CYP2B6; phenobarbital 2 mM, 72 h, both cell lines): induced
- induction of CYP3A4 activity (CYP3A4 [5]; hepatocytes): induced
- CYP3A4 gene expression, induction (CYP3A4 gene expression; human, hepatocytes): ≤ 9 fold
- SLC22A7 gene expression (SLC22A7 gene expression): down regulated
- CYP2C8 gene expression, decreased to x-fold of control (CYP2C8 gene expression): up to 0.3 fold
- CYP2C19 gene expression, induction (CYP2C19 gene expression): up to 1.5 fold
- CYP2E1 gene expression, decreased to x-fold of control (CYP2E1 gene expression): ≤ 0.2 fold
- SULT1B1 gene expression, down regulated to x-fold of control (SULT1B1 gene expression): up to 0.5 fold
- UGT1A1 gene expression, induction (UGT1A1 gene expression): 1.8 fold
- SLCO1B1 gene expression, induction (SLCO1B1 gene expression): up to 2.9 fold
- NAT1 gene expression, down regulated to x-fold of control (NAT1 gene expression): up to 0.5 fold
- protein expression of CYP3A4 (Western blot) (CYP3A4 [6]): induced
